What was measured:
[1] = SD, rat, in vivo
[2] = test system: influenza type A virus A/Osaka/129/2009 and Streptococcus pneumoniae SR1326; format: in vivo, BALB/c mice; conditions: for mice survived: BXA 10 mg/kg sc single dose, OSP 10 mg/kg po bid 5 days, through 15 days
[3] = test system: influenza type A virus A/Osaka/129/2009 and Streptococcus pneumoniae SR1326; format: in vivo, BALB/c mice; conditions: for mice recovered from body weight loss and survived: BXA 10 mg/kg sc single dose, OSP 10 mg/kg po bid 5 days
[4] = set-up: species or system rats; conditions: rat, po
Description: FIGS. 1 and 2 show a result of measuring the plasma concentration of Compound (III) and Compound (II-6), respectively, after oral administration of prodrug Compound (II-6) to rats under non-fasting conditions.

clinical = conditions: human, in vivo
Method: Patients were administered up to three doses of baloxavir marboxil separated by 3 days (i.e., Days 1, 4, and 7). […] Likewise, total drug exposure simulated on Day 7 area under the plasma concentration-time curve for a dosing interval (AUCtau) was not expected to exceed area under the concentration-time curve from Time 0 to infinity (AUCinf) of the TQT, regardless of dose.

Compound | BA (%) [1] | mice survived [2] | mice recovered from body weight loss and survived [3] | other results
CC(=O)Oc1c2n(ccc1=O)N([C@@H]1c3ccccc3SCc3c1ccc(F)c3F)[C@@H]1COCCN1C2=O [II-4] | 20.0% | – | – | –
baloxavir marboxil [II-6] | – | – | – | body weight change after virus infection ([2]; 2-day delayed treatment, compared with vehicle, OSP or monotherapy): less reduction of body weight
CCOC(=O)C1=C[C@@H](OC(CC)CC)[C@H](NC(C)=O)[C@@H](N)C1 [OSP, Oseltamivir phosphate, reference compound] | – | all mice died | all mice died | survival time compared with vehicle treatment ([2]; 2-day delayed treatment, log rank test): significantly prolonged; efficacy on survival ([3]; mouse, in vivo): not effective
COC(=O)OCOc1c2n(ccc1=O)N([C@@H]1c3ccccc3SCc3c1ccc(F)c3F)[C@@H]1COCCN1C2=O [II-6, baloxavir marboxil] | 14.9% | – | – | conversion of prodrug to Compound (III) in vivo [4]: metabolized promptly to Compound (III)
O=C1c2c(O)c(=O)ccn2N([C@@H]2c3ccccc3SCc3c2ccc(F)c3F)[C@@H]2COCCN12 [III, baloxavir] | 4.2% | 75% | 40% | Cmax (clinical): 126 ng/mL; half-life (clinical): ~70 h

Source: patent publication US20240285643A1, “TREATING INFLUENZA USING SUBSTITUTED POLYCYCLIC PYRIDONE DERIVATIVES AND PRODRUGS THEREOF IN A SUBJECT HAVING INFLUENZA AND A SEVERE INFLUENZA CONDITION” (Shionogi & Co., Ltd., priority 2019, published 2024)
